Source: patent US9994522B2, “Amorphous form of apremilast” (MAPI PHARMA LTD., priority 2014, dated 2018)

Columns and labels:
Assay type in all cases: physicochemical
[1] = Dynamic Vapor Sorption (DVS) / hygroscopicity; details: for Change In Mass (%) - ref, Desorption / Change In Mass (%) - ref, Sorption / Change In Mass (%) - ref, Hysteresis: 25° C.
Procedure: Details of DVS method used in the tests are mentioned below: • Samples (about 10 mg) were transferred into a DVS pan, the weight changes were recorded with respect to the atmospheric humidity at 25° C.
The following parameters were used: • Equilibrium: dm/dt: 0.01%/min. (for min: 10 min and max: 180 min). • Drying: 0% RH for 120 min. • RH (%) measurement step: 5%, • RH (%) measurement step scope: 0˜95˜0%.

[2] = Physical stability on storage, appearance
Procedure: (§1) About 40 mg of scaled up amorphous sample prepared by solvent-anti-solvent precipitation (addition of water to acetone) as described in Example 6 was weighed into glass vials. The vials were stored under different testing conditions (25° C. closed vial, 25° C./60% RH, 40° C. closed vial and 40° C./75% RH) 1 week, 2 weeks, 4 weeks, and 3 months. The original scaled up amorphous form was used as a control. XRPD and mDSC were checked at the end of each time point.

[3] = Physical stability on storage, mDSC
Procedure: Details of mDSC methods used in the tests are mentioned below: • Method I: Amorphous samples (about 1 mg) were run a modulated DSC using Tzero aluminum pans heated from 0° C. to 200° C. at speed of 2° C./min, with modulation temperature amplitude 1.0° C. and modulation 60 s. • Method II: The two-cycle heating mDSC was run using Tzero aluminum hermetic pans with pinhole with first cycle heated from 0° C. to 160° C. at speed of 2° C./min and the second cycle from 0° C. to 260° C. at speed of 2° C./min.
as §1

[4] = Physical stability on storage, XRPD pattern; details: for physical stability: 25° C. closed, 25° C./60% RH and 40° C. closed, three months (not 40° C./75% RH)
Procedure: 3.1 XRPD Method • Details of XRPD method used in the tests are mentioned below: • X-ray Generator: Cu, Kα (λ=1.54179 Å). • Tube Voltage: 40 kV; Current: 40 mA. • Scanning Scope: 4 to 40 deg; • Sample rotation speed: 15 rpm. • Scanning rate: 10 deg/min
as §1

[5] = DVS Cycle 1, target 10.0 % P/Po
[6] = DVS Cycle 1, target 15.0 % P/Po
[7] = DVS Cycle 1, target 20.0 % P/Po
[8] = DVS Cycle 1, target 25.0 % P/Po
[9] = DVS Cycle 1, target 30.0 % P/Po
[10] = DVS Cycle 1, target 35.0 % P/Po
[11] = DVS Cycle 1, target 40.0 % P/Po
[12] = DVS Cycle 1, target 45.0 % P/Po
[13] = DVS Cycle 1, target 50.0 % P/Po
[14] = DVS Cycle 1, target 55.0 % P/Po
[15] = DVS Cycle 1, target 60.0 % P/Po
[16] = DVS Cycle 1, target 65.0 % P/Po
[17] = DVS Cycle 1, target 70.0 % P/Po
[18] = DVS Cycle 1, target 75.0 % P/Po
[19] = DVS Cycle 1, target 80.0 % P/Po
[20] = DVS Cycle 1, target 85.0 % P/Po
[21] = DVS Cycle 1, target 90.0 % P/Po
[22] = DVS Cycle 1, target 95.0 % P/Po
[23] = stored 25° C. Closed, 3rd month
[24] = stored 25° C./60% RH, 3rd month
[25] = stored 40° C. Closed, 3rd month
[26] = stored 40° C./75% RH, 3rd month

CCOc1cc([C@@H](CS(C)(=O)=O)N2C(=O)c3cccc(NC(C)=O)c3C2=O)ccc1OC [amorphous apremilast, N-[2-[(1S)-1-(3-ethoxy-4-methoxyphenyl)-2-(methylsulfonyl)ethyl]-2,3-dihydro-1,3-dioxo-1H-isoindol-4-yl]acetamide]
Change In Mass (%) - ref, Desorption ([1]; DVS Cycle 1, target 0.0 % P/Po): −0.066% | Change In Mass (%) - ref, Sorption ([1]; DVS Cycle 1, target 0.0 % P/Po): −0.010% | Change In Mass (%) - ref, Desorption ([1]; DVS Cycle 1, target 5.0 % P/Po): 0.138% | Change In Mass (%) - ref, Hysteresis ([1]; DVS Cycle 1, target 5.0 % P/Po): −0.045% | Change In Mass (%) - ref, Sorption ([1]; DVS Cycle 1, target 5.0 % P/Po): 0.183% | Change In Mass (%) - ref, Desorption [1, 5]: 0.308% | Change In Mass (%) - ref, Hysteresis [1, 5]: −0.006% | Change In Mass (%) - ref, Sorption [1, 5]: 0.314% | Change In Mass (%) - ref, Desorption [1, 6]: 0.463% | Change In Mass (%) - ref, Hysteresis [1, 6]: 0.030% | Change In Mass (%) - ref, Sorption [1, 6]: 0.434% | Change In Mass (%) - ref, Desorption [1, 7]: 0.606% | Change In Mass (%) - ref, Hysteresis [1, 7]: 0.066% | Change In Mass (%) - ref, Sorption [1, 7]: 0.540% | Change In Mass (%) - ref, Desorption [1, 8]: 0.740% | Change In Mass (%) - ref, Hysteresis [1, 8]: 0.107% | Change In Mass (%) - ref, Sorption [1, 8]: 0.633% | Change In Mass (%) - ref, Desorption [1, 9]: 0.860% | Change In Mass (%) - ref, Hysteresis [1, 9]: 0.131% | Change In Mass (%) - ref, Sorption [1, 9]: 0.730% | Change In Mass (%) - ref, Desorption [1, 10]: 0.976% | Change In Mass (%) - ref, Hysteresis [1, 10]: 0.155% | Change In Mass (%) - ref, Sorption [1, 10]: 0.821% | Change In Mass (%) - ref, Desorption [1, 11]: 1.090% | Change In Mass (%) - ref, Hysteresis [1, 11]: 0.181% | Change In Mass (%) - ref, Sorption [1, 11]: 0.909% | Change In Mass (%) - ref, Desorption [1, 12]: 1.203% | Change In Mass (%) - ref, Hysteresis [1, 12]: 0.200% | Change In Mass (%) - ref, Sorption [1, 12]: 1.003% | Change In Mass (%) - ref, Desorption [1, 13]: 1.311% | Change In Mass (%) - ref, Hysteresis [1, 13]: 0.224% | Change In Mass (%) - ref, Sorption [1, 13]: 1.087% | Change In Mass (%) - ref, Desorption [1, 14]: 1.411% | Change In Mass (%) - ref, Hysteresis [1, 14]: 0.238% | Change In Mass (%) - ref, Sorption [1, 14]: 1.173% | Change In Mass (%) - ref, Desorption [1, 15]: 1.514% | Change In Mass (%) - ref, Hysteresis [1, 15]: 0.250% | Change In Mass (%) - ref, Sorption [1, 15]: 1.263% | Change In Mass (%) - ref, Desorption [1, 16]: 1.619% | Change In Mass (%) - ref, Hysteresis [1, 16]: 0.258% | Change In Mass (%) - ref, Sorption [1, 16]: 1.360% | Change In Mass (%) - ref, Desorption [1, 17]: 1.730% | Change In Mass (%) - ref, Hysteresis [1, 17]: 0.270% | Change In Mass (%) - ref, Sorption [1, 17]: 1.460% | Change In Mass (%) - ref, Desorption [1, 18]: 1.836% | Change In Mass (%) - ref, Hysteresis [1, 18]: 0.338% | Change In Mass (%) - ref, Sorption [1, 18]: 1.498% | Change In Mass (%) - ref, Desorption [1, 19]: 1.940% | Change In Mass (%) - ref, Hysteresis [1, 19]: 0.306% | Change In Mass (%) - ref, Sorption [1, 19]: 1.634% | Change In Mass (%) - ref, Desorption [1, 20]: 1.972% | Change In Mass (%) - ref, Hysteresis [1, 20]: 0.208% | Change In Mass (%) - ref, Sorption [1, 20]: 1.763% | Change In Mass (%) - ref, Desorption [1, 21]: 1.956% | Change In Mass (%) - ref, Hysteresis [1, 21]: 0.122% | Change In Mass (%) - ref, Sorption [1, 21]: 1.834% | Change In Mass (%) - ref, Desorption [1, 22]: 1.883% | Change In Mass (%) - ref, Sorption [1, 22]: 1.883% | Hygroscopicity Classification ([1]; based on DVS data, criterion at 25 ± 1° C. and 80 ± 2% RH): slightly hygroscopic | Appearance ([2]; Initial): Light Yellow | Appearance ([2]; stored 25° C. Closed, 1st week): Light | Appearance ([2]; stored 25° C. Closed, 2nd week): Light | Appearance [2, 23]: Light | Appearance ([2]; stored 25° C. Closed, 4th week): Light | Appearance ([2]; stored 25° C./60% RH, 1st week): Light | Appearance ([2]; stored 25° C./60% RH, 2nd week): Light | Appearance [2, 24]: Light | Appearance ([2]; stored 25° C./60% RH, 4th week): Light | Appearance ([2]; stored 40° C. Closed, 1st week): Light | Appearance ([2]; stored 40° C. Closed, 2nd week): Light | Appearance [2, 25]: Light | Appearance ([2]; stored 40° C. Closed, 4th week): Light | Appearance ([2]; stored 40° C./75% RH, 1st week): Light | Appearance ([2]; stored 40° C./75% RH, 2nd week): Light | Appearance ([2]; stored 40° C./75% RH, 3rd month, listed as Amorphous Apremilast): Darken | Appearance ([2]; stored 40° C./75% RH, 3rd month, listed as apremilast): changed from light yellow to darkened yellow | Appearance ([2]; stored 40° C./75% RH, 4th week): Light | Tg of mDSC (first glass transition temperature) ([3]; Initial): 77.7 °C | Tg of mDSC (second glass transition temperature) ([3]; Initial): 133.5 °C | change of first glass transition temperature (77.7° C.) on storage ([3]; all testing conditions, up to end of the third month): did not change significantly | change of second glass transition temperature (133.6° C.) on storage ([3]; different testing conditions, first week and second week): changed irregularly and even disappeared | heat of fusion peak related to crystalline conversion ([3]; stored 25° C. (closed), 40° C. (closed) and 25° C./60% RH for three months): No heat of fusion peak related to crystalline conversion | Tg of mDSC (first glass transition temperature) ([3]; stored 25° C. Closed, 1st week): 77.7 °C | Tg of mDSC (first glass transition temperature) ([3]; stored 25° C. Closed, 2nd week): 78.5 °C | Tg of mDSC (second glass transition temperature) ([3]; stored 25° C. Closed, 2nd week): 181.3 °C | Tg of mDSC (first glass transition temperature) [3, 23]: 79.0 °C | Tg of mDSC (first glass transition temperature) ([3]; stored 25° C. Closed, 4th week): 78.2 °C | Tg of mDSC (first glass transition temperature) ([3]; stored 25° C./60% RH, 1st week): 78.4 °C | Tg of mDSC (second glass transition temperature) ([3]; stored 25° C./60% RH, 1st week): 171.4 °C | Tg of mDSC (first glass transition temperature) ([3]; stored 25° C./60% RH, 2nd week): 78.8 °C | Tg of mDSC (first glass transition temperature) [3, 24]: 79.9 °C | Tg of mDSC (first glass transition temperature) ([3]; stored 25° C./60% RH, 4th week): 78.9 °C | Tg of mDSC (first glass transition temperature) ([3]; stored 40° C. Closed, 1st week): 79.1 °C | Tg of mDSC (first glass transition temperature) ([3]; stored 40° C. Closed, 2nd week): 79.7 °C | Tg of mDSC (second glass transition temperature) ([3]; stored 40° C. Closed, 2nd week): 170.4 °C | Tg of mDSC (first glass transition temperature) [3, 25]: 83.9 °C | Tg of mDSC (first glass transition temperature) ([3]; stored 40° C. Closed, 4th week): 81.1 °C | Tg of mDSC (first glass transition temperature) ([3]; stored 40° C./75% RH, 1st week): 77.5 °C | Tg of mDSC (second glass transition temperature) ([3]; stored 40° C./75% RH, 1st week): 105.9 °C | Tg of mDSC (first glass transition temperature) ([3]; stored 40° C./75% RH, 2nd week): 77.8 °C | Tg of mDSC (second glass transition temperature) ([3]; stored 40° C./75% RH, 2nd week): 174.5 °C | Tg of mDSC (first glass transition temperature) [3, 26]: 77.7 °C | Tg of mDSC (first glass transition temperature) ([3]; stored 40° C./75% RH, 4th week): 78.0 °C | sharp endothermic peak on mDSC (related to melting point of the crystalline form) ([3]; stored 40° C./75% RH, third month): 153.4 °C | physical stability [4]: good physical stability | physical stability ([4]; listed as Apremilast): stable for three months | XRPD Pattern ([4]; Initial): Amorphous | XRPD Pattern ([4]; stored 25° C. Closed, 1st week): Amorphous | XRPD Pattern ([4]; stored 25° C. Closed, 2nd week): Amorphous | XRPD Pattern [4, 23]: Amorphous | XRPD Pattern ([4]; stored 25° C. Closed, 4th week): Amorphous | XRPD Pattern ([4]; stored 25° C./60% RH, 1st week): Amorphous | XRPD Pattern ([4]; stored 25° C./60% RH, 2nd week): Amorphous | XRPD Pattern [4, 24]: Amorphous | XRPD Pattern ([4]; stored 25° C./60% RH, 4th week): Amorphous | XRPD Pattern ([4]; stored 40° C. Closed, 1st week): Amorphous | XRPD Pattern ([4]; stored 40° C. Closed, 2nd week): Amorphous | XRPD Pattern [4, 25]: Amorphous | XRPD Pattern ([4]; stored 40° C. Closed, 4th week): Amorphous | XRPD Pattern ([4]; stored 40° C./75% RH, 1st week): Amorphous | XRPD Pattern ([4]; stored 40° C./75% RH, 2nd week): Amorphous | XRPD Pattern [4, 26]: Amorphous | XRPD Pattern ([4]; stored 40° C./75% RH, 4th week): Amorphous | small spike in the XRPD ([4]; stored 40° C./75% RH, after three months): 13.5 degrees two theta [2θ°]
